Test results published in ChEMBL document CHEMBL4393657, “Tetrazole hybrids and their antifungal activities” (2019).
≈ marks a conversion by molar mass, not a printed value.

How the values were obtained:
Type in all cases: functional
Candida albicans [1] = assay: Antifungal activity against Candida albicans assessed as inhibition zone at 125 ug/ml by disk diffusion method; settings: read-out: IZ
Candida albicans [2] = assay: In vivo antifungal activity against Candida albicans TA infected in CDF-1 mouse dosed orally assessed as survival of mouse; settings: po
Candida albicans [3] = assay: Antifungal activity against Candida albicans ATCC 885653 assessed as inhibition zone at 100 ug/ml incubated for 48 to 72 hrs by agar-diffusion method; settings: read-out: IZ
Candida albicans [4] = assay: Antifungal activity against Candida albicans NCCS 3471 assessed as inhibition zone at 50 ug/ml incubated for 3 to 4 days by disk diffusion method; settings: read-out: IZ
Aspergillus fumigatus [5] = assay: Antifungal activity against Aspergillus fumigatus NCIM 902 assessed as inhibition zone at 50 ug/ml incubated for 3 to 4 days by disk diffusion method; settings: read-out: IZ
Candida albicans [6] = assay: Antifungal activity against Candida albicans assessed as inhibition zone at 250 ug/ml; settings: read-out: IZ
Aspergillus niger [7] = assay: Antifungal activity against Aspergillus niger assessed as inhibition zone at 250 ug/ml; settings: read-out: IZ
Candida albicans [8] = assay: Antifungal activity against Candida albicans assessed as reduction in fungal cell growth incubated for 24 hrs by broth microdilution method
Candida albicans [9] = assay: Antifungal activity against Candida albicans assessed as reduction in fungal cell growth incubated for 48 hrs by broth microdilution susceptibility method
Aspergillus niger [10] = assay: Antifungal activity against Aspergillus niger assessed as reduction in fungal cell growth incubated for 48 hrs by broth microdilution susceptibility method
Aspergillus flavus = assay: Antifungal activity against Aspergillus flavus assessed as inhibition zone at 25 ug/ml by disk diffusion method; settings: read-out: IZ
Aspergillus fumigatus [11] = assay: Antifungal activity against Aspergillus fumigatus assessed as inhibition zone at 25 ug/ml by disk diffusion method; settings: read-out: IZ
Aspergillus niger [12] = assay: Antifungal activity against Aspergillus niger assessed as inhibition zone at 25 ug/ml by disk diffusion method; settings: read-out: IZ
Candida albicans [13] = assay: Antifungal activity against Candida albicans assessed as inhibition zone at 25 ug/ml by disk diffusion method; settings: read-out: IZ
Candida albicans [14] = assay: Antifungal activity against Candida albicans TA

Q: How did the zone of inhibition at 125 µg/mL (Candida albicans [1]) turn out when `COc1ccc(/N=C/c2cc3cc(-c4nc5ccccc5[nH]4)ccc3n3nnnc23)cc1` was run?
A: Its zone of inhibition at 125 µg/mL is 7 to 12 mm.

Q: Which ED50 (Candida albicans [2]) does the source give for `C[C@@H](n1nnn(-c2ccc(OC(F)(F)C(F)F)cc2)c1=O)[C@](O)(Cn1cncn1)c1ccccc1` here?
A: Its ED50 is 0.71 to 2 mg/kg.

Q: `NCCSc1nc2ccccc2c2nnnn12` was tested. Which zone of inhibition at 100 µg/mL (Candida albicans [3]) did it give?
A: The zone of inhibition at 100 µg/mL was 6 to 22 mm.

Q: With `Cc1ccc(-n2nnnc2-c2cccnc2)cc1` as the compound, how does the zone of inhibition at 50 µg/mL (Candida albicans [4]) read?
A: Its zone of inhibition at 50 µg/mL is 10 to 19 mm.

Q: And the zone of inhibition at 50 µg/mL (Aspergillus fumigatus [5])?
A: Its zone of inhibition at 50 µg/mL is 10 to 19 mm.

Q: With `c1ccc(-c2nnnn2-c2nc3ccccc3s2)cc1` as the compound, how does the zone of inhibition at 250 µg/mL (Candida albicans [6]) read?
A: The zone of inhibition at 250 µg/mL was 13 to 23 mm.

Q: And the zone of inhibition at 250 µg/mL (Aspergillus niger [7])?
A: The zone of inhibition at 250 µg/mL was 13 to 23 mm.

Q: Which ED50 (Candida albicans [2]) does the source give for `C[C@@H](n1nnn(-c2ccc(OC(F)(F)F)cc2)c1=O)[C@](O)(Cn1cncn1)c1ccccc1` here?
A: Its ED50 is 0.71 to 2 mg/kg.

Q: Which ED50 (Candida albicans [2]) does the source give for `C[C@@H](n1nnn(-c2ccc(OCC(F)(F)C(F)(F)F)cc2)c1=O)[C@](O)(Cn1cncn1)c1ccccc1` here?
A: Its ED50 is 0.71 to 2 mg/kg.

Q: With `FC(F)(F)c1cc(-c2ccc(Br)cc2)nc2nnnn12` as the compound, how does the MIC (Candida albicans [8]) read?
A: Its MIC is 62.5 µg/mL (≈ 182 µM).

Q: `Clc1ccc(-c2nnn(-c3[se]nnc3-c3ccc(Cl)cc3)n2)cc1` was tested. Which MIC (Candida albicans [9]) did it give?
A: The MIC was 6.25 µg/mL (≈ 14.8 µM).

Q: What about the MIC (Aspergillus niger [10]) of the same compound?
A: The MIC was 6.25 µg/mL (≈ 14.8 µM).

Q: What does the source list for `CN(C)c1ccc(-c2nnnn2-c2nc3ccccc3s2)cc1`?
A: zone of inhibition at 250 µg/mL (Candida albicans [6]): 13 to 23 mm; zone of inhibition at 250 µg/mL (Aspergillus niger [7]): 13 to 23 mm

Q: What does the source list for `COc1ccccc1-n1nnnc1-c1cccnc1`?
A: zone of inhibition at 50 µg/mL (Candida albicans [4]): 10 to 19 mm; zone of inhibition at 50 µg/mL (Aspergillus fumigatus [5]): 10 to 19 mm

Q: Which results are given for `Cc1ccccc1OCc1cn(Cc2ccc(-c3ccccc3-c3nnn[nH]3)cc2)nn1`?
A: zone of inhibition at 25 µg/mL (Aspergillus flavus): 11 to 18 mm; zone of inhibition at 25 µg/mL (Aspergillus fumigatus [11]): 11 to 18 mm; zone of inhibition at 25 µg/mL (Aspergillus niger [12]): 11 to 18 mm; zone of inhibition at 25 µg/mL (Candida albicans [13]): 11 to 18 mm

Q: With `O=[N+]([O-])c1ccc(OCc2cn(Cc3ccc(-c4ccccc4-c4nnn[nH]4)cc3)nn2)cc1` as the compound, how does the zone of inhibition at 25 µg/mL (Aspergillus flavus) read?
A: Its zone of inhibition at 25 µg/mL is 11 to 18 mm.

Q: And the zone of inhibition at 25 µg/mL (Aspergillus fumigatus [11])?
A: Its zone of inhibition at 25 µg/mL is 11 to 18 mm.

Q: What about the zone of inhibition at 25 µg/mL (Aspergillus niger [12]) of the same compound?
A: The zone of inhibition at 25 µg/mL was 11 to 18 mm.

Q: And the zone of inhibition at 25 µg/mL (Candida albicans [13])?
A: Its zone of inhibition at 25 µg/mL is 11 to 18 mm.

Q: `O=[N+]([O-])c1ccc(-c2nnnn2-c2nc3ccccc3s2)cc1` was tested. Which zone of inhibition at 250 µg/mL (Candida albicans [6]) did it give?
A: The zone of inhibition at 250 µg/mL was 13 to 23 mm.

Q: What about the zone of inhibition at 250 µg/mL (Aspergillus niger [7]) of the same compound?
A: The zone of inhibition at 250 µg/mL was 13 to 23 mm.

Q: `Clc1ccc(OCc2cn(Cc3ccc(-c4ccccc4-c4nnn[nH]4)cc3)nn2)cc1` was tested. Which zone of inhibition at 25 µg/mL (Aspergillus flavus) did it give?
A: Its zone of inhibition at 25 µg/mL is 11 to 18 mm.

Q: What about the zone of inhibition at 25 µg/mL (Aspergillus fumigatus [11]) of the same compound?
A: The zone of inhibition at 25 µg/mL was 11 to 18 mm.

Q: And the zone of inhibition at 25 µg/mL (Aspergillus niger [12])?
A: Its zone of inhibition at 25 µg/mL is 11 to 18 mm.

Q: And the zone of inhibition at 25 µg/mL (Candida albicans [13])?
A: Its zone of inhibition at 25 µg/mL is 11 to 18 mm.

Q: With `C[C@@H](n1nnn(-c2ccc(C(F)(F)F)cc2)c1=O)[C@](O)(Cn1cncn1)c1ccccc1` as the compound, how does the ED50 (Candida albicans [2]) read?
A: Its ED50 is 0.71 to 2 mg/kg.

Q: How did the zone of inhibition at 125 µg/mL (Candida albicans [1]) turn out when `O=C(O)c1ccc(/N=C/c2cc3cc(-c4nc5ccccc5[nH]4)ccc3n3nnnc23)cc1` was run?
A: Its zone of inhibition at 125 µg/mL is 7 to 12 mm.

Q: `Clc1cccc(-n2nnnc2-c2cccnc2)c1Cl` was tested. Which zone of inhibition at 50 µg/mL (Candida albicans [4]) did it give?
A: The zone of inhibition at 50 µg/mL was 16 mm.

Q: And the zone of inhibition at 50 µg/mL (Aspergillus fumigatus [5])?
A: The zone of inhibition at 50 µg/mL was 18 mm.

Q: For `COc1ccc(-c2nn[se]c2-n2nnc(-c3ccc(Cl)cc3)n2)cc1`, which MIC (Candida albicans [9]) is on record?
A: The MIC was 100 to 400 µg/mL (≈ 239 to 958 µM).

Q: And the MIC (Aspergillus niger [10])?
A: The MIC was 100 to 400 µg/mL (≈ 239 to 958 µM).

Q: `Cc1ccc(OCc2cn(Cc3ccc(-c4ccccc4-c4nnn[nH]4)cc3)nn2)cc1` was tested. Which zone of inhibition at 25 µg/mL (Aspergillus flavus) did it give?
A: The zone of inhibition at 25 µg/mL was 11 to 18 mm.

Q: What about the zone of inhibition at 25 µg/mL (Aspergillus fumigatus [11]) of the same compound?
A: The zone of inhibition at 25 µg/mL was 11 to 18 mm.

Q: And the zone of inhibition at 25 µg/mL (Aspergillus niger [12])?
A: Its zone of inhibition at 25 µg/mL is 11 to 18 mm.

Q: And the zone of inhibition at 25 µg/mL (Candida albicans [13])?
A: The zone of inhibition at 25 µg/mL was 11 to 18 mm.

Q: How did the zone of inhibition at 125 µg/mL (Candida albicans [1]) turn out when `O=[N+]([O-])c1ccc(/N=C/c2cc3cc(-c4nc5ccccc5[nH]4)ccc3n3nnnc23)cc1` was run?
A: The zone of inhibition at 125 µg/mL was 7 to 12 mm.

Q: How did the zone of inhibition at 25 µg/mL (Aspergillus flavus) turn out when `Clc1ccccc1OCc1cn(Cc2ccc(-c3ccccc3-c3nnn[nH]3)cc2)nn1` was run?
A: Its zone of inhibition at 25 µg/mL is 11 to 18 mm.

Q: What about the zone of inhibition at 25 µg/mL (Aspergillus fumigatus [11]) of the same compound?
A: The zone of inhibition at 25 µg/mL was 11 to 18 mm.

Q: And the zone of inhibition at 25 µg/mL (Aspergillus niger [12])?
A: Its zone of inhibition at 25 µg/mL is 11 to 18 mm.

Q: And the zone of inhibition at 25 µg/mL (Candida albicans [13])?
A: Its zone of inhibition at 25 µg/mL is 11 to 18 mm.

Q: For `Cc1ccc(C(=O)CSc2nc3ccccc3c3nnnn23)cc1`, which zone of inhibition at 100 µg/mL (Candida albicans [3]) is on record?
A: Its zone of inhibition at 100 µg/mL is 6 to 22 mm.

Q: How did the zone of inhibition at 100 µg/mL (Candida albicans [3]) turn out when `CNCCSc1nc2ccccc2c2nnnn12` was run?
A: The zone of inhibition at 100 µg/mL was 6 to 22 mm.

Q: For `CC(C)NCCSc1nc2ccccc2c2nnnn12`, which zone of inhibition at 100 µg/mL (Candida albicans [3]) is on record?
A: The zone of inhibition at 100 µg/mL was 6 to 22 mm.

Q: Which MIC (Candida albicans [9]) does the source give for `S=C1N=C(c2ccc(Cl)cc2)CC(c2cc3ccccc3n3nnnc23)N1` (centres undefined) here?
A: Its MIC is no less than 100 µg/mL.

Q: Which results are given for `Clc1ccc(-c2nn[se]c2-n2nnc(-c3ccccc3)n2)cc1`?
A: MIC (Candida albicans [9]): 100 to 400 µg/mL (≈ 258 to 1030 µM); MIC (Aspergillus niger [10]): 100 to 400 µg/mL (≈ 258 to 1030 µM)

Q: For `Cc1ccc(N2C(=O)CC(=O)N(/N=C/c3cc4ccccc4n4nnnc34)C2=S)cc1`, which MIC (Candida albicans [9]) is on record?
A: The MIC was no less than 100 µg/mL.

Q: How did the MIC (Candida albicans [14]) turn out when `C[C@@H](n1ncnn1)[C@](O)(Cn1cncn1)c1ccccc1F` was run?
A: Its MIC is 100 µg/mL (≈ 330 µM).

Q: `Clc1ccccc1C(c1ccccc1)(c1ccccc1)n1ccnc1` [CLOTRIMAZOLE] was tested. Which MIC (Candida albicans [9]) did it give?
A: The MIC was 12.5 µg/mL (≈ 36.2 µM).

Q: `Clc1ccc(-n2nnnc2-c2cccnc2)cc1` was tested. Which zone of inhibition at 50 µg/mL (Candida albicans [4]) did it give?
A: Its zone of inhibition at 50 µg/mL is 10 to 19 mm.

Q: What about the zone of inhibition at 50 µg/mL (Aspergillus fumigatus [5]) of the same compound?
A: The zone of inhibition at 50 µg/mL was 10 to 19 mm.

Q: For `O=C(CSc1nc2ccccc2c2nnnn12)c1ccccc1`, which zone of inhibition at 100 µg/mL (Candida albicans [3]) is on record?
A: Its zone of inhibition at 100 µg/mL is 6 to 22 mm.

Q: Which MIC (Candida albicans [9]) does the source give for `O=C1/C(=C/c2ccccc2)C(=O)N(c2ccccc2)C(=S)N1/N=C/c1cc2ccccc2n2nnnc12` here?
A: The MIC was no less than 100 µg/mL.

Q: With `Clc1ccc(-c2nn[se]c2-n2nnc(-c3ccccc3Cl)n2)cc1` as the compound, how does the MIC (Candida albicans [9]) read?
A: The MIC was 6.25 µg/mL (≈ 14.8 µM).

Q: And the MIC (Aspergillus niger [10])?
A: The MIC was 6.25 µg/mL (≈ 14.8 µM).

Q: `C[C@@H](n1nnn(-c2ccc(F)cc2)c1=O)[C@](O)(Cn1cncn1)c1ccccc1` was tested. Which ED50 (Candida albicans [2]) did it give?
A: The ED50 was 0.71 to 2 mg/kg.

Q: Which MIC (Candida albicans [9]) does the source give for `CN(C)c1ccc(/C=C2/C(=O)N(/N=C/c3cc4ccccc4n4nnnc34)C(=S)N(c3ccccc3)C2=O)cc1` here?
A: Its MIC is no less than 100 µg/mL.

Q: For `Cc1ccc(-c2nnn(-c3[se]nnc3-c3ccc(Cl)cc3)n2)cc1`, which MIC (Candida albicans [9]) is on record?
A: The MIC was 100 to 400 µg/mL (≈ 249 to 996 µM).

Q: And the MIC (Aspergillus niger [10])?
A: The MIC was 100 to 400 µg/mL (≈ 249 to 996 µM).
